# Laboratory results published in ChEMBL document CHEMBL3885881, “DrugMatrix”.
# Species on record: Rattus norvegicus
# Assay: DrugMatrix - Regimen: Daily Repeat
# Assay type: toxicity, organism-based, Sprague-Dawley
# Set-up: regimen Daily Repeat, gender Male, age 6-8 weeks
# Conditions: in vivo, sc, route subcutaneous, […]; for ABSOLUTE BASOPHIL / ABSOLUTE EOSINOPHIL / ABSOLUTE LYMPHOCYTE / ABSOLUTE MONOCYTE / ABSOLUTE SEGMENTED NEUTROPHIL / BASOPHIL / EOSINOPHIL / ERYTHROCYTE COUNT / HEMATOCRIT / HEMOGLOBIN / LEUKOCYTE COUNT / LYMPHOCYTE / MEAN CORPUSCULAR HEMOGLOBIN / MEAN CORPUSCULAR HEMOGLOBIN CONCENTRATION / MEAN CORPUSCULAR VOLUME / MONOCYTE / NEUTROPHIL / NUCLEATED RED BLOOD CELLS / PLATELET COUNT: tissue Blood; for ALANINE AMINOTRANSFERASE / ALBUMIN / ALKALINE PHOSPHATASE / ASPARTATE AMINOTRANSFERASE / BLOOD UREA NITROGEN / CARBON DIOXIDE / CHLORIDE / CHOLESTEROL / CREATINE PHOSPHOKINASE / CREATININE / GLUCOSE / LACTATE DEHYDROGENASE / LIPASE / PHOSPHORUS / POTASSIUM / SODIUM / TOTAL BILIRUBIN / TOTAL PROTEIN / URIC ACID: tissue Plasma
# [1] = 0 mg/kg, 72 h, dose level Control, time 3 day
# [2] = 0 mg/kg, 120 h, dose level Control, time 5 day
# [3] = 50 mg/kg, 72 h, dose level Low, time 3 day
compound,measurement,setting,value
CCCCOC(=O)c1ccc(N)cc1 [BUTAMBEN],ABSOLUTE BASOPHIL,[1],0 CELLS/uL
same,ABSOLUTE EOSINOPHIL,[1],42.67 CELLS/uL
same,ABSOLUTE LYMPHOCYTE,[1],10202 CELLS/uL
same,ABSOLUTE MONOCYTE,[1],261.5 CELLS/uL
same,ABSOLUTE SEGMENTED NEUTROPHIL,[1],2193.83 CELLS/uL
same,BASOPHIL,[1],0%
same,EOSINOPHIL,[1],0.33%
same,ERYTHROCYTE COUNT,[1],5.63 x10E6/uL
same,HEMATOCRIT,[1],35.35%
same,HEMOGLOBIN,[1],13.07 G/DL
same,LEUKOCYTE COUNT,[1],12.7 x10E3/uL
same,LYMPHOCYTE,[1],81.17%
same,MEAN CORPUSCULAR HEMOGLOBIN,[1],23.23 pg
same,MEAN CORPUSCULAR HEMOGLOBIN CONCENTRATION,[1],36.97 G/DL
same,MEAN CORPUSCULAR VOLUME,[1],62.82 fL
same,MONOCYTE,[1],2%
same,NEUTROPHIL,[1],16.5%
same,NUCLEATED RED BLOOD CELLS,[1],0 /100WBC
same,PLATELET COUNT,[1],1180.33 x10E3/uL
same,ALANINE AMINOTRANSFERASE,[1],48.67 u/L
same,ALBUMIN,[1],4.08 G/DL
same,ALKALINE PHOSPHATASE,[1],360.67 u/L
same,ASPARTATE AMINOTRANSFERASE,[1],85.5 u/L
same,BLOOD UREA NITROGEN,[1],17.83 mg/dL
same,CARBON DIOXIDE,[1],26.17 mmol/L
same,CHLORIDE,[1],101.83 MEQ/L
same,CHOLESTEROL,[1],71 mg/dL
same,CREATINE PHOSPHOKINASE,[1],515.17 u/L
same,CREATININE,[1],0.22 mg/dL
same,GLUCOSE,[1],192.5 mg/dL
same,LACTATE DEHYDROGENASE,[1],214.67 u/L
same,LIPASE,[1],8.5 u/L
same,PHOSPHORUS,[1],12.95 mg/dL
same,POTASSIUM,[1],6.39 MEQ/L
same,SODIUM,[1],142.38 MEQ/L
same,TOTAL BILIRUBIN,[1],0.18 mg/dL
same,TOTAL PROTEIN,[1],5.95 G/DL
same,URIC ACID,[1],1.83 mg/dL
same,ABSOLUTE BASOPHIL,[2],0 CELLS/uL
same,ABSOLUTE EOSINOPHIL,[2],188.5 CELLS/uL
same,ABSOLUTE LYMPHOCYTE,[2],12360.83 CELLS/uL
same,ABSOLUTE MONOCYTE,[2],64.33 CELLS/uL
same,ABSOLUTE SEGMENTED NEUTROPHIL,[2],1986.33 CELLS/uL
same,BASOPHIL,[2],0%
same,EOSINOPHIL,[2],1.33%
same,ERYTHROCYTE COUNT,[2],5.52 x10E6/uL
same,HEMATOCRIT,[2],35.82%
same,HEMOGLOBIN,[2],13.25 G/DL
same,LEUKOCYTE COUNT,[2],14.6 x10E3/uL
same,LYMPHOCYTE,[2],84.5%
same,MEAN CORPUSCULAR HEMOGLOBIN,[2],24.05 pg
same,MEAN CORPUSCULAR HEMOGLOBIN CONCENTRATION,[2],36.98 G/DL
same,MEAN CORPUSCULAR VOLUME,[2],64.97 fL
same,MONOCYTE,[2],0.5%
same,NEUTROPHIL,[2],13.67%
same,NUCLEATED RED BLOOD CELLS,[2],0 /100WBC
same,PLATELET COUNT,[2],1297.83 x10E3/uL
same,ALANINE AMINOTRANSFERASE,[2],51.17 u/L
same,ALBUMIN,[2],4.08 G/DL
same,ALKALINE PHOSPHATASE,[2],393.17 u/L
same,ASPARTATE AMINOTRANSFERASE,[2],111 u/L
same,BLOOD UREA NITROGEN,[2],18.17 mg/dL
same,CARBON DIOXIDE,[2],25 mmol/L
same,CHLORIDE,[2],105.17 MEQ/L
same,CHOLESTEROL,[2],65.5 mg/dL
same,CREATINE PHOSPHOKINASE,[2],911.5 u/L
same,CREATININE,[2],0.21 mg/dL
same,GLUCOSE,[2],183 mg/dL
same,LACTATE DEHYDROGENASE,[2],189 u/L
same,LIPASE,[2],8.33 u/L
same,PHOSPHORUS,[2],12.78 mg/dL
same,POTASSIUM,[2],6.05 MEQ/L
same,SODIUM,[2],144.57 MEQ/L
same,TOTAL BILIRUBIN,[2],0.25 mg/dL
same,TOTAL PROTEIN,[2],5.83 G/DL
same,URIC ACID,[2],1.58 mg/dL
same,ABSOLUTE BASOPHIL,[3],0 CELLS/uL
same,ABSOLUTE EOSINOPHIL,[3],143.67 CELLS/uL
same,ABSOLUTE LYMPHOCYTE,[3],12216.67 CELLS/uL
same,ABSOLUTE MONOCYTE,[3],393.33 CELLS/uL
same,ABSOLUTE SEGMENTED NEUTROPHIL,[3],2079.67 CELLS/uL
same,BASOPHIL,[3],0%
same,EOSINOPHIL,[3],1%
same,ERYTHROCYTE COUNT,[3],5.53 x10E6/uL
same,HEMATOCRIT,[3],33.47%
same,HEMOGLOBIN,[3],12.13 G/DL
same,LEUKOCYTE COUNT,[3],14.83 x10E3/uL
same,LYMPHOCYTE,[3],82.33%
same,MEAN CORPUSCULAR HEMOGLOBIN,[3],21.93 pg
same,MEAN CORPUSCULAR HEMOGLOBIN CONCENTRATION,[3],36.23 G/DL
same,MEAN CORPUSCULAR VOLUME,[3],60.5 fL
same,MONOCYTE,[3],2.67%
same,NEUTROPHIL,[3],14%
same,NUCLEATED RED BLOOD CELLS,[3],0 /100WBC
same,PLATELET COUNT,[3],1210 x10E3/uL
same,ALANINE AMINOTRANSFERASE,[3],56.33 u/L
same,ALBUMIN,[3],3.9 G/DL
same,ALKALINE PHOSPHATASE,[3],352 u/L
same,ASPARTATE AMINOTRANSFERASE,[3],93.33 u/L
same,BLOOD UREA NITROGEN,[3],15.67 mg/dL
same,CARBON DIOXIDE,[3],27 mmol/L
same,CHLORIDE,[3],103.67 MEQ/L
same,CHOLESTEROL,[3],75.33 mg/dL
same,CREATINE PHOSPHOKINASE,[3],408 u/L
same,CREATININE,[3],0.24 mg/dL
same,GLUCOSE,[3],178.67 mg/dL
same,LACTATE DEHYDROGENASE,[3],150.67 u/L
same,LIPASE,[3],8.33 u/L
same,PHOSPHORUS,[3],12.53 mg/dL
same,POTASSIUM,[3],5.89 MEQ/L
same,SODIUM,[3],144.57 MEQ/L
same,TOTAL BILIRUBIN,[3],0.2 mg/dL
same,TOTAL PROTEIN,[3],5.57 G/DL
same,URIC ACID,[3],1.43 mg/dL
